{
  "source": "patent US20240293483A1",
  "about": "“PROBIOTIC COMPOSITION FOR THE TREATMENT OF INCREASED INTESTINAL PERMEABILITY” (AB-BIOTICS, S.A., priority 2021, published 2024)",
  "key": {"polyP [1]": {"test_system": "polyP", "experiment": "Polyphosphate (polyP) production assay: hypochlorite extraction from cells, DAPI fluorescence quantification", "method": "For polyP production assay, malic enzyme induction (MEI) medium containing (per liter, w/v) 0.5% yeast extract, 0.5% tryptone, 0.4% K2HPO4, 0.5% KH2PO4, 0.02% MgSO4·7H2O, 0.005% MnSO4, 1 ml of Tween 80, 0.05% cysteine, and 0.5% glucose was used (Alcántara et al. 2014). The strains unable to grow in MEI were grown in MRScys. Cultures were inoculated at OD (595 nm) 0.1 and each strain was grown under the conditions indicated above. Growth was monitored by measuring OD for 16 h.\nPolyP was isolated from cells by its resistance to hydrolysis with sodium hypochlorite as previously described (Alcántara et al. 2014). Cells were harvested by centrifugation and lysed in 1 ml of 5% sodium hypochlorite with gentle agitation for 45 min at room temperature. Insoluble material was pelleted by centrifugation at 16,000 g for 5 min at 4° C. and washed twice with 1 ml of 1.5 M NaCl plus 1 mM EDTA at 16,000 g for 5 min at 4° C. PolyP was extracted from the pellets with two consecutive washes with 1 ml of water and a centrifugation step at 16,000 g for 5 min at 4° C. between them. PolyP in the pooled water extracts was precipitated by adding 0.1 M NaCl and 1 volume of ethanol, followed by incubation on ice for 1 h. After centrifugation at 16,000 g for 10 min, the polyP pellet was resuspended in 50 μL of water.\nA standard curve relating phosphate amount to fluorescence intensity was built to quantify the extracted polyP from the strains. As a first step, serial dilutions of a sample of polyP isolated from the polyphosphate-producer control strain Lactiplantibacillus plantarum strain WCFS1 (Alcántara et al. 2014) were prepared. Second, the dilutions were hydrolyzed with a volume of 2 M HCl, incubated at 95° C. for 15 min to release phosphate and then neutralized by adding […] of 2 M NaOH. Third, the released phosphate from each dilution was quantified with BIOMOL Green Kit (Enzo Life Sciences) as recommended by the manufacturer. In parallel, the released phosphate from each dilution was dyed using 4′,6-diamidino-2-phenylindole (DAPI) at a final concentration of 10 μM in 50 mM Tris-HCl pH 7.5, 50 mM NaCl buffer and fluorescence was measured with an excitation wavelength of 415 nm and emission at 550 nm in a fluorimeter. Finally, a standard curve was built with phosphate values and the corresponding fluorescence values obtained.\nOnce the standard curve is obtained, polyP amounts from the samples can be quantified according to fluorescence values, without the need of using BIOMOL Green kit. Therefore, the quantification of polyP from the strain samples was indirectly measured by DAPI fluorescence using the standard curve. Firstly, the extracted polyP was measured by fluorescence using DAPI at a final concentration of 10 μM in 50 mM Tris-HCl pH 7.5, 50 mM NaCl buffer with an excitation wavelength of 415 nm and emission at 550 nm in a fluorimeter. Then, the amount of polyP was calculated as nmol of phosphate by means of the standard curve. At least three biological replicates were performed.\nB. longum CECT 7894 was grown in medium MEI without glucose supplemented with i) breast milk (1% v/v); ii) LNT (1% w/v); iii) polyamines, in quantities found in breast milk: 70.0, 424.2 and 610.0 […] of putrescine, spermidine and spermine, respectively, and glucose (0.5% w/v); and iv) glucose (0.5% w/v) as positive control. Growth (OD550) and polyP production were determined after 6 and 16 h of incubation."}, "[2]": {"experiment": "Stability of the strain in final product (plate counting of cfus, Zone II storage)", "type": "physicochemical", "settings": "25° C., 60% RH", "method": "The product was packaged in glass amber bottles and stored under Zone II conditions (25° C., 60% Relative Humidity (RH)). […] Results were expressed in LOG (cfus). Trend line was obtained and predicted cfus at 12 months were estimated. Fold and log reduction comparing cfus between 0 and 12 months were calculated."}, "[3]": {"test_system": "Caco-2 intestinal epithelial cells", "experiment": "Adhesion to the intestinal epithelium in vitro", "type": "cell-based", "settings": "Caco-2 monolayers, MOI 1:5, 1 h at 37° C., % of LOG cfu/mL", "method": "Adhesion to the intestinal epithelium was studied in vitro using Caco-2 intestinal epithelial cells. Bacterial suspensions were added to Caco-2 monolayers (Multiplicity of infection (MOI) 1:5 cells to probiotic) and to wells without Caco-2 cells as controls. After 1 h of incubation at 37° C., medium was removed, cells were detached, and suspensions recovered. Bacteria were enumerated in the obtained suspension by serial dilutions and plate count. Bacteria in the medium of the control wells were also quantified. B. longum subsp. longum ATCC 15707 was used as quality control with a known adhesion percentage of 47-55."}, "polyP [4]": {"test_system": "polyP", "experiment": "PolyP amount in culture supernatants (extracellular)", "settings": "16 h", "method": "B. longum CECT 7894 was grown in MEI medium and Low Phosphate (LP) medium. The last medium has the same composition as MEI but without the addition of polyP precursors (K2HPO4 and KH2PO4), thus the strain cannot produce high amounts of polyP. After 16 h growth cultures were centrifuged and supernatants collected, filtered, and adjusted to neutral pH. PolyP amounts were measured as described in EXAMPLE 1."}, "Caco-2 cells monolayer": {"test_system": "Caco-2 cells monolayer", "experiment": "Barrier integrity (TEER) and permeability (Papp of Lucifer Yellow) of Caco-2 monolayer", "type": "cell-based", "settings": "Caco-2, 72 h apical exposure to high-polyP supernatant (MEI culture) vs low-polyP supernatant and controls", "method": "Integrity of Caco-2 cells monolayer was evaluated by measuring transepithelial electrical resistance (TEER) and permeability by the apparent permeability coefficients (Papp) of the paracellular transport marker Lucifer Yellow.\nCaco-2 cells were seed in porous membrane inserts with apical (upper) and basolateral (lower) compartments. Medium Essential Medium Eagle (MEM) was added to both compartments. Cells were treated with supernatants of B. longum CECT 7894 grown in MEI and LP media. Additional cells were treated with MEM, non-fermented MEI and LP media and used as controls.\nAfter 72 h of treatment, TEER and permeability were determined. TEER was measured with a Millicell®-ERS voltammeter. For the permeability assay, Lucifer Yellow was added to the apical compartment. At 15, 30, 45, 60, 90 and 120 min, aliquots were taken from the basolateral compartment and the fluorescence of the Lucifer Yellow transported was measured with a fluorescence microplate reader at excitation/emission wavelengths of 485/520 nm."}, "HSP27": {"test_system": "HSP27", "experiment": "HSP27 production by Western blot", "type": "cell-based", "settings": "Caco-2, 16 h, high-polyP supernatant (MEI) vs low-polyP supernatant (LP); normalized to β-actin", "method": "The production of HSP27 was studied in Caco-2 intestinal epithelial cells in confluence by Western blot assay as described by Alcántara et al., 2018 with some modifications. Bacterial supernatants were added to the cell cultures and incubation proceeded for 16 h. MEI and LP media were used as controls. To recover HSP27, cells were lysed with […] and boiled for 5 min. Proteins were separated in SDS-PAGE gel and then transferred to a nylon membrane (blot). The blots were incubated with a rabbit polyclonal anti-HSP27 serum or with a mouse monoclonal anti-β-actin antibody (protein used for normalization). After washing, secondary antibodies peroxidase-conjugated anti-rabbit IgG and anti-mouse IgG, respectively, were used. Blots images were captured, and proteins were quantified in an Imagin 680 system."}, "Zonula ocludens-1 (ZO1)": {"test_system": "Zonula ocludens-1 (ZO1)", "experiment": "Expression of tight junction genes by qPCR: ZO1", "type": "cell-based", "settings": "Caco-2, 16 h, high-polyP vs low-polyP supernatant", "method": "(§1) Caco-2 cells were exposed for 16 h to supernatants of B. longum CECT 7894 grown in MEI and LP media. Then, cells were recovered, and RNA extracted with TRIZOL reagent. cDNA was obtained from RNA using SuperScript VILO cDNA synthesis kit. Quantitative PCR (qPCR) reactions were performed with SYBR Green in the conditions indicated by manufacturer. Expression of tight junction proteins Zonula ocludens-1 (ZO1), Junctional adhesion protein-1 (JAM1) and occluding was quantified. Expression of 18S rRNA and GADPH genes were used for normalization."}, "[5]": {"test_system": "Junctional adhesion protein-1 (JAM1)", "experiment": "Expression of tight junction genes by qPCR: JAM1", "type": "cell-based", "settings": "Caco-2, 16 h, high-polyP vs low-polyP supernatant", "method": "as §1"}, "Occludin": {"test_system": "Occludin", "experiment": "Expression of tight junction genes by qPCR: occludin", "type": "cell-based", "settings": "Caco-2, 16 h, high-polyP vs low-polyP supernatant", "method": "as §1"}, "[6]": {"test_system": "dextran sulfate sodium (DSS)-induced colitis", "settings": "mice, combined with infliximab; cited from earlier work"}},
  "data": [
    {"substance": "Bifidobacterium longum subsp. longum KABP-042 (CECT 7894)", "values": [
      {"measurement": "times more polyP than B. scardovii BAA-773", "setting": "polyP [1]; 6 h", "value": 140, "unit": "times"},
      {"measurement": "times more polyP than L. plantarum WCFS1", "setting": "polyP [1]; 6 h values (12.7 vs 230.9 nmol)", "value": 18, "unit": "times"},
      {"measurement": "PolyP 6 h, Polyamines", "setting": "polyP [1]; MEI + polyamines (putrescine, spermidine, spermine) + glucose 0.5%, 6 h", "value": 111.0, "unit": "nmol"},
      {"measurement": "PolyP 16 h, Polyamines", "setting": "polyP [1]; MEI + polyamines + glucose 0.5%, 16 h", "value": 48.6, "unit": "nmol"},
      {"measurement": "PolyP 6 h", "setting": "polyP [1]; MEI or MRScys, inoculated at OD 0.1, 6 h of growth, nmol of phosphate", "value": 230.9, "unit": "nmol"},
      {"measurement": "PolyP 16 h", "setting": "polyP [1]; MEI or MRScys, inoculated at OD 0.1, 16 h of growth, nmol of phosphate", "value": 258.3, "unit": "nmol"},
      {"measurement": "PolyP 6 h, Control (glucose)", "setting": "polyP [1]; MEI with glucose 0.5%, 6 h", "value": 110.2, "unit": "nmol"},
      {"measurement": "PolyP 16 h, Control (glucose)", "setting": "polyP [1]; MEI with glucose 0.5%, 16 h", "value": 70.2, "unit": "nmol"},
      {"measurement": "PolyP 6 h, LNT", "setting": "polyP [1]; MEI without glucose + LNT 1% w/v, 6 h", "value": 117.0, "unit": "nmol"},
      {"measurement": "PolyP 16 h, LNT", "setting": "polyP [1]; MEI without glucose + LNT 1% w/v, 16 h", "value": 145.0, "unit": "nmol"},
      {"measurement": "PolyP 6 h, Breast milk", "setting": "polyP [1]; MEI without glucose + breast milk 1% v/v, 6 h", "value": 18.5, "unit": "nmol"},
      {"measurement": "PolyP 16 h, Breast milk", "setting": "polyP [1]; MEI without glucose + breast milk 1% v/v, 16 h", "value": 2.0, "unit": "nmol"},
      {"measurement": "LOG (cfus) estimated at 12 months", "setting": "[2]; final product in sunflower oil, trend line from 0-6 months", "value": "9.01 LOG (cfus)"},
      {"measurement": "LOG loss over 12 months", "setting": "[2]; final product, 0 vs 12 months", "value": "~0.5", "unit": "LOG"},
      {"measurement": "Adhesion to intestinal epithelium (%)", "setting": "[3]", "value": 70.8, "unit": "%"},
      {"measurement": "Adhesion to intestinal epithelium (%)", "setting": "[3]; listed as B. longum subsp. longum KABP042 (CECT 7894)", "value": 70.8, "unit": "%"},
      {"measurement": "PolyP amount in supernatant, MEI medium", "setting": "polyP [4]; high phosphate (MEI medium)", "value": 2.24, "unit": "nmol"},
      {"measurement": "PolyP amount in supernatant, LP medium", "setting": "polyP [4]; low phosphate (LP medium)", "value": 0.22, "unit": "nmol"},
      {"measurement": "transepithelial electrical resistance (TEER)", "setting": "Caco-2 cells monolayer", "value": "higher TEER"},
      {"measurement": "production of HSP27", "setting": "HSP27", "value": "significantly higher production of HSP27"},
      {"measurement": "expression of tight junction protein ZO1", "setting": "Zonula ocludens-1 (ZO1)", "value": "induced"},
      {"measurement": "expression of tight junction protein JAM1", "setting": "[5]", "value": "induced"},
      {"measurement": "expression of tight junction protein Occludin", "setting": "Occludin", "value": "induced"},
      {"measurement": "effect on efficacy of infliximab in DSS-induced colitis", "setting": "[6]", "value": "improved the efficacy of infliximab"}
    ]}
  ]
}
